Laboratory results: US9872875B2, “Component and method for treating viral disease” (Institut Pasteur of Shanghai, Chinese Academy of Sciences, priority 2012, dated 2018)
Counter-ions that a name gives are not always drawn. Like-named read-outs stand apart in the source and are kept apart here. Ends that are not written are not given here.

Key:
[1] = system: EV71; test: Effects of other antagonists and agonists on EV71 (Table 9); assay type: cell-based, Enterovirus 71; parameters: key: “NO” indicates there is negative
[2] = target: T1, P2X7 receptor (Homo sapiens, UniProt Q99572); details: cited from earlier work
T1 sequence (Q99572 1-595): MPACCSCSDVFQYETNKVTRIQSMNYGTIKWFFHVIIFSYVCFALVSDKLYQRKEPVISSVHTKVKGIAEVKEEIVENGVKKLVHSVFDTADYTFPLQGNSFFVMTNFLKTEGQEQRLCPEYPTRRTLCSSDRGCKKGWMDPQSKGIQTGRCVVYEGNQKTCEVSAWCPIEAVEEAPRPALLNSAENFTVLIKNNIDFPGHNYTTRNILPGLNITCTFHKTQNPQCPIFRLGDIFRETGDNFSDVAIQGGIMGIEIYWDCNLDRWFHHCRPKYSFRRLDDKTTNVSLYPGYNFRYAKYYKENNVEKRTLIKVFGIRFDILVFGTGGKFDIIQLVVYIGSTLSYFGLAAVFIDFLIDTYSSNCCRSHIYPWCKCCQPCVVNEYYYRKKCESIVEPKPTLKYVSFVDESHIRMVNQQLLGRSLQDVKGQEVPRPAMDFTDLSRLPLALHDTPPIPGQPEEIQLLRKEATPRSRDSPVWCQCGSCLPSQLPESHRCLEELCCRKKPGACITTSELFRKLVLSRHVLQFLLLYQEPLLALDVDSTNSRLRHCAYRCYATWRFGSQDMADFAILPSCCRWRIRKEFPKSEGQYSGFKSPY

[3] = system: EV71; test: Inhibition of EV71 replication in RD cells at 0.1, 1, 10 and 100 μM (CPE, crystal violet); assay type: cell-based, Enterovirus 71; details: for Inhibition of EV71 replication: Table 8, antagonists
Experimental: Inhibitory effect of each P2X receptor antagonists and agonists on EV71 replication was measured at 0.1, 1, 10, and 100 μM. Specific procedures refer to “1” of Example 1. after infection, however, cells need to be incubated for 3˜4 days, stained with crystal violet, and observed under optical microscope to determine whether or not CPE (cytopathic effect) was present. In addition, the effect of compounds at each concentration on cytotoxicity to RD cells was determined. After culturing RD cells in various concentrations of compounds for 3˜4 days, stained with crystal violet, and observed under optical microscope to observe whether or not cell layer was damaged. Compounds capable of protecting cells from infection without damage of healthy cell layer can inhibit EV71 replication in RD cells.

[4] = target: T2, P2X1 receptor (Homo sapiens, UniProt P51575); details: cited from earlier work
T2 sequence (P51575 1-399): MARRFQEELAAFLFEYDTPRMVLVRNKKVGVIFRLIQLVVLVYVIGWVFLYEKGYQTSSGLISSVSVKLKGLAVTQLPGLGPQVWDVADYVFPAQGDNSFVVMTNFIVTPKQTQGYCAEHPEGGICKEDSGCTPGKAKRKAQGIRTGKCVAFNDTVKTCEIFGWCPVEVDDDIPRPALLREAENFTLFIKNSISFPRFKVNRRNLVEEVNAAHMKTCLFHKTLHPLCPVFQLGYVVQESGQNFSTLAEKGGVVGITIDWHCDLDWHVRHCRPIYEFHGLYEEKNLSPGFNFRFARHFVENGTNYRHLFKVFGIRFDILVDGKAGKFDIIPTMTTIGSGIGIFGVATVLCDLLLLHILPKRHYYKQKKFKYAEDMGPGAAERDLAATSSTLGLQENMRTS

[5] = target: T3, P2X2 receptor (Homo sapiens, UniProt Q9UBL9); details: cited from earlier work
T3 sequence (Q9UBL9 1-471): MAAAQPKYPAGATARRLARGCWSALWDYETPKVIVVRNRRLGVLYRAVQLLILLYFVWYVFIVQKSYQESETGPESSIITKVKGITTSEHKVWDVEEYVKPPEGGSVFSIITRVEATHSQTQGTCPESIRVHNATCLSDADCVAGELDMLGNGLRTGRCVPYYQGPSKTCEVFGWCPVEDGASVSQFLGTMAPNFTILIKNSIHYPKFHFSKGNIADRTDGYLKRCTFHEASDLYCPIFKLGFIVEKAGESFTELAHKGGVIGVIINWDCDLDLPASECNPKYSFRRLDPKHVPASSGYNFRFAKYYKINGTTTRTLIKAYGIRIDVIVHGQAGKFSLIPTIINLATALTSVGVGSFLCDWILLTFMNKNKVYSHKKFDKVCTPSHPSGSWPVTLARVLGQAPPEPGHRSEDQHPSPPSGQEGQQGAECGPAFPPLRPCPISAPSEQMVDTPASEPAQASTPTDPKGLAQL

[6] = target: T4, P2X3 receptor (Homo sapiens, UniProt P56373); details: cited from earlier work
T4 sequence (P56373 1-397): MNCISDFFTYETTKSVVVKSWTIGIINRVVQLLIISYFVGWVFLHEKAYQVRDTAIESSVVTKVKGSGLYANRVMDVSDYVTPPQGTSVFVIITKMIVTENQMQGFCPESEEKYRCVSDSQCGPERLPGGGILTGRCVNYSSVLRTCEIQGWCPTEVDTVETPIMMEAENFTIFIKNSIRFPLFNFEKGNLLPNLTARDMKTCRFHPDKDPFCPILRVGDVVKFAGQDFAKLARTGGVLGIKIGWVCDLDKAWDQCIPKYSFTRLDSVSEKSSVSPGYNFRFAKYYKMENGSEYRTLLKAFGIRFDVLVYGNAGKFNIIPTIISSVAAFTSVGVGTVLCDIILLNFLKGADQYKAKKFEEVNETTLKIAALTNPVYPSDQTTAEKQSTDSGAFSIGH

Nc1ncnc2c1ncn2[C@@H]1O[C@H](COP(=O)(O)O)C(O)C1OP(=O)(O)O (stereo partly drawn) [2′,5′-ADP]
EV71 Log10 reduction [1]: NO

O=C1CN=C(c2cccc(Br)c2)c2oc3ccccc3c2N1 [5-BDBD]
EV71 Log10 reduction [1]: NO

Clc1cccc(-c2nnnn2Cc2cccnc2)c1Cl [A 438079]
EV71 Log10 reduction [1]: NO | P2X receptors 7 ([2]; Table 9, antagonists): ✓ ✓ (✓ ✓ activating concentration 10 nM-300 nM)

COc1ccc(CC(=O)NC(N=C(NC#N)Nc2cccc3ncccc23)C(C)(C)C)cc1OC (stereo not drawn) [A 740003]
EV71 Log10 reduction [1]: NO | P2X receptors 7 ([2]; Table 9, antagonists): ✓ ✓ (✓ ✓ activating concentration 10 nM-300 nM)

Clc1cccc(-n2nnnc2NCc2ccccc2Oc2ccccn2)c1Cl [A 839977]
EV71 Log10 reduction [1]: NO | P2X receptors 7 ([2]; Table 9, antagonists): ✓ ✓ (✓ ✓ activating concentration 10 nM-300 nM)

O=C(O)c1cc(C(=O)O)c(C(=O)N(Cc2cccc(Oc3ccccc3)c2)[C@H]2CCCc3ccccc32)cc1C(=O)O [A-317491]
EV71 Log10 reduction [1]: NO

COc1cc(C(C)C)c(Oc2cnc(N)nc2N)cc1I [AF353]
EV71 Log10 reduction [1]: NO

O=C(CC12CC3CC(CC(C3)C1)C2)Nc1cccc2nc(NCCNCCO)ccc12 [AZ 10606120]
EV71 Log10 reduction [1]: NO

O=C1CSC(=O)N1C(CCc1ccncc1)COc1ccc(-c2cccc([N+](=O)[O-])c2)cc1 (stereo not drawn) [AZ 11645373]
EV71 Log10 reduction [1]: NO | P2X receptors 7 ([2]; Table 9, antagonists): ✓ ✓ (✓ ✓ activating concentration 10 nM-300 nM)

Cc1cc(-c2ccc(N=Nc3ccc4c(S(=O)(=O)[O-])cc(S(=O)(=O)[O-])c(N)c4c3O)c(C)c2)ccc1N=Nc1ccc2c(S(=O)(=O)[O-])cc(S(=O)(=O)[O-])c(N)c2c1O.[Na+].[Na+].[Na+].[Na+] [Evans Blue]
inhibition of EV71 replication (statement in words) [3]: can also inhibit EV71 replication

Cc1ccc(CN2CCNCC2)cc1NC(=O)CNc1ccc(F)c(F)c1 [GW 791343]
EV71 Log10 reduction [1]: NO | P2X receptors 7 ([2]; Table 9, modulator, no key printed for this class): ✓ ✓

CN([C@@H](Cc1ccc(OS(=O)(=O)c2cccc3cnccc23)cc1)C(=O)N1CCN(c2ccccc2)CC1)S(=O)(=O)c1cccc2cnccc12 [KN-62]
EV71 Log10 reduction [1]: NO | P2X receptors 7 ([2]; Table 9, antagonists): ✓ ✓ (✓ ✓ activating concentration 10 nM-300 nM)

Cc1nc(N=Nc2ccc(C(=O)O)cc2)c(COP(=O)(O)O)c(C=O)c1O [MRS 2159]
EV71 Log10 reduction [1]: NO | P2X receptors 1 ([4]; Table 9, antagonists): ✓ ✓ (✓ ✓ activating concentration 10 nM-300 nM)

O=C(Nc1cccc(C(=O)Nc2ccc(S(=O)(=O)O)c3cc(S(=O)(=O)O)cc(S(=O)(=O)O)c23)c1)Nc1cccc(C(=O)Nc2ccc(S(=O)(=O)O)c3cc(S(=O)(=O)O)cc(S(=O)(=O)O)c23)c1 [NF023, 8,8′-[carbonylbis(imino-3,1-phenylenecarbonylimino)]bis-1,3,5-naphthalene-trisulphonic acid, hexasodium salt]
inhibition of EV71 replication (statement in words) [3]: can also inhibit EV71 replication | Inhibition of EV71 replication [3]: + (+: inhibitory concentration >300 nM) | P2X receptors 1 [4]: ++ (key: −: no activity; +: inhibitory concentration >300 nM; ++: inhibitory concentration = 10~300 nM; +++: inhibitory concentration <10 nM) | P2X receptors 2 ([5]; Table 8, antagonists): + (+: inhibitory concentration >300 nM) | P2X receptors 3 ([6]; Table 8, antagonists): + (+: inhibitory concentration >300 nM)

O=C(Nc1cccc(C(=O)Nc2cc(C(=O)Nc3ccc(S(=O)(=O)O)c4cc(S(=O)(=O)O)cc(S(=O)(=O)O)c34)ccc2F)c1)Nc1cccc(C(=O)Nc2cc(C(=O)Nc3ccc(S(=O)(=O)O)c4cc(S(=O)(=O)O)cc(S(=O)(=O)O)c34)ccc2F)c1 [NF157, 8,8′-[Carbonylbis[imino-3,1-phenylenecarbonylimino(4-fluoro-3,1-phenylene)carbonylimino]]]
inhibition of EV71 replication (statement in words) [3]: can also inhibit EV71 replication

O=C(Nc1cc(C(=O)Nc2ccc(S(=O)(=O)[O-])cc2)cc(C(=O)Nc2ccc(S(=O)(=O)[O-])cc2)c1)Nc1cc(C(=O)Nc2ccc(S(=O)(=O)[O-])cc2)cc(C(=O)Nc2ccc(S(=O)(=O)[O-])cc2)c1.[Na+].[Na+].[Na+].[Na+] [NF 110]
EV71 Log10 reduction [1]: NO | P2X receptors 1 ([4]; Table 9, antagonists): ✓ ✓ (✓ ✓ activating concentration 10 nM-300 nM) | P2X receptors 2 ([5]; Table 9, antagonists): ✓ (✓ activating concentration >300 nM) | P2X receptors 3 ([6]; Table 9, antagonists): ✓ ✓ (✓ ✓ activating concentration 10 nM-300 nM)

Cc1nc(N=Nc2cc(S(=O)(=O)[O-])c3cc([N+](=O)[O-])cc(S(=O)(=O)[O-])c3c2)c(COP(=O)([O-])[O-])c(C=O)c1O.[Na+].[Na+].[Na+].[Na+] [PPNDS, Pyridoxal-5′-phosphate-6-(2′-naphthylazo-6′-nitro-4′,8′-disulfonate) tetrasodium salt]
inhibition of EV71 replication (statement in words) [3]: can also inhibit EV71 replication | Inhibition of EV71 replication [3]: ++ (++: inhibitory concentration = 10~300 nM) | P2X receptors 1 ([4]; Table 8, antagonists): ++ (++: inhibitory concentration = 10~300 nM)

O=C(N[C@H](Cc1cscn1)C(=O)N[C@@H](CC1CCCCC1)[C@@H](O)[C@@H](O)C1CC1)c1nc2ccccc2[nH]1 [Ro 0437626]
EV71 Log10 reduction [1]: NO | P2X receptors 1 ([4]; Table 9, antagonists): ✓ (✓ activating concentration >300 nM)

Nc1ncnc2c1ncn2[C@@H](C=O)O[C@@H](C=O)COP(=O)(O)OP(=O)(O)OP(=O)(O)O [oATP]
EV71 Log10 reduction [1]: NO | P2X receptors 7 ([2]; Table 9, antagonists): ✓ ✓ (✓ ✓ activating concentration 10 nM-300 nM)

LVVYPWT [Spinorphin]
EV71 Log10 reduction [1]: NO | P2X receptors 3 ([6]; Table 9, antagonists): ✓ ✓ ✓ (✓ ✓ ✓ activating concentration <10 nM)
